Results reported in patent publication US20140094424A1, “MICROBICIDAL COMPOSITIONS AND METHODS OF PRODUCTION USE THEREOF” (priority 2011, published 2014).

Tests used:
[1] = tested on: Penicillium notatum-KMO (R); experiment: MBC (minimum bactericidal concentration) test in Wash NEXT reagent; format: cell-based; settings: for total kill at % preservative (MBC): at 14 days
Protocol: (§1) The stock organisms were thawed and subbed prior to beginning the MBC test. Molds were subbed to SDA plates one week before, and the bacteria were subbed to TAT agar plates 24 hours prior to the start of the test. All plates were incubated at 32 degrees C.
(§2) For the molds, each organism was inoculated into 40 ml sterile saline in a centrifuge tube to create a density of MacFarland #5. Two serial dilutions of 1:100 were then made, resulting in 10^−2 and 10^−4 concentrations. Each dilution was vortexed before it was sampled, and sterile Eppendorf pipette tips were used to make each transfer. The 10^−4 dilution was spiral plated to yield the initial inoculum concentration.
(§3) MBC trays were set up with the prepared test reagent. Using a Matrix pipettor, 100 μl aliquots of reagent were distributed into the wells, diluting the amount of preservative from 100% to 10% increments, using unpreserved reagent as the diluent. In one row, 100% non-preserved reagent acted as a positive control and served as a benchmark for a full mat of growth. In well #12H, 100 μl unpreserved reagent was pipetted, and this well was not inoculated with organisms, as it served as the negative control. Once all of the trays were prepared, the prepared bacteria/mold suspensions were poured into the MBC inoculating trays. These were placed onto the reagent trays, and 0.01 ml inoculum was introduced into the 100 μl of reagent in each well.
(§4) This was done by dipping a sterile cotton swab into each well, and absorbing all of the liquid in the well. The swab was rolled onto a TAT agar plate ensuring that the entire swab touches the agar. Plates ware incubated at 32 degrees C. for 48 hours to 7 days, depending on the organism. Observations for growth were performed by a scoring matrix using + for a full mat, +/− for some growth, a numerical value for an actual colony count, and—for no growth.
(§5) Below are tables that contain the data obtained in Example 1. The MBC test is scored by (+) indicating a full grown mat of organisms, equivalent to the organisms in the unpreserved reagent. (+/−) indicates there is some kill evident disturbing that mat or bringing the quantities down to an almost countable level. An actual number is the actual number of colonies growing at that concentration of preservative. (−) indicates no growth found. The MBC trays were stored at room temperature for the entire test.
(§6) The materials and methods and analysis of the MBC test were the same as in Example 1.

[2] = tested on: Pseudomonas aeruginosa (L); experiment: as above; format: cell-based
Protocol: as §1
as §2, with “Each bacterial” for “For the molds, each”, “#1.” for “#5.”
as §3, §4, §5, §6

[N-]=[N+]=[N-] [Sodium Azide, sodium azide]
growth ([1]; 10%, 8 hour): + | growth ([1]; 10%, 24 hour): + | growth ([1]; 10%, 48 hour): +/− | growth (number of organisms counted) ([1]; 10%, 72 hour): 24 | growth (number of organisms counted) ([1]; 10%, 7 day): 20 | growth (number of organisms counted) ([1]; 10%, 14 day): 14 | growth ([1]; 20%, 8 hour): + | growth ([1]; 20%, 24 hour): + | growth ([1]; 20%, 48 hour): +/− | growth (number of organisms counted) ([1]; 20%, 72 hour): 22 | growth (number of organisms counted) ([1]; 20%, 7 day): 19 | growth (number of organisms counted) ([1]; 20%, 14 day): 11 | growth ([1]; 30%, 8 hour): + | growth ([1]; 30%, 24 hour): + | growth ([1]; 30%, 48 hour): +/− | growth (number of organisms counted) ([1]; 30%, 72 hour): 22 | growth (number of organisms counted) ([1]; 30%, 7 day): 19 | growth (number of organisms counted) ([1]; 30%, 14 day): 8 | growth ([1]; 40%, 8 hour): + | growth ([1]; 40%, 24 hour): + | growth ([1]; 40%, 48 hour): +/− | growth (number of organisms counted) ([1]; 40%, 72 hour): 18 | growth (number of organisms counted) ([1]; 40%, 7 day): 15 | growth (number of organisms counted) ([1]; 40%, 14 day): 6 | growth ([1]; 50%, 8 hour): + | growth ([1]; 50%, 24 hour): + | growth ([1]; 50%, 48 hour): +/− | growth (number of organisms counted) ([1]; 50%, 72 hour): 15 | growth (number of organisms counted) ([1]; 50%, 7 day): 12 | growth ([1]; 50%, 14 day): − | growth ([1]; 60%, 8 hour): + | growth ([1]; 60%, 24 hour): + | growth ([1]; 60%, 48 hour): +/− | growth (number of organisms counted) ([1]; 60%, 72 hour): 13 | growth (number of organisms counted) ([1]; 60%, 7 day): 10 | growth ([1]; 60%, 14 day): − | growth ([1]; 70%, 8 hour): + | growth ([1]; 70%, 24 hour): + | growth ([1]; 70%, 48 hour): +/− | growth (number of organisms counted) ([1]; 70%, 72 hour): 11 | growth (number of organisms counted) ([1]; 70%, 7 day): 9 | growth ([1]; 70%, 14 day): − | growth ([1]; 80%, 8 hour): + | growth ([1]; 80%, 24 hour): + | growth ([1]; 80%, 48 hour): +/− | growth (number of organisms counted) ([1]; 80%, 72 hour): 9 | growth (number of organisms counted) ([1]; 80%, 7 day): 6 | growth ([1]; 80%, 14 day): − | growth ([1]; 90%, 8 hour): + | growth ([1]; 90%, 24 hour): + | growth ([1]; 90%, 48 hour): +/− | growth (number of organisms counted) ([1]; 90%, 72 hour): 7 | growth (number of organisms counted) ([1]; 90%, 7 day): 4 | growth ([1]; 90%, 14 day): − | growth ([1]; 100%, 8 hour): + | growth ([1]; 100%, 24 hour): + | growth ([1]; 100%, 48 hour): +/− | growth (number of organisms counted) ([1]; 100%, 72 hour): 6 | growth (number of organisms counted) ([1]; 100%, 7 day): 3 | growth ([1]; 100%, 14 day): − | total kill at % preservative (MBC) [1]: had total kill at 50% preservative at 14 | total kill at % preservative (MBC) ([1]; listed as Na Azide): Total kill @ 50% | MBC test growth score ([2]; 10% preservative, 8 hour): + | MBC test growth score ([2]; 10% preservative, 24 hour): + | MBC test growth score ([2]; 10% preservative, 48 hour): + | MBC test growth score ([2]; 10% preservative, 72 hour): + | MBC test growth score ([2]; 20% preservative, 8 hour): + | MBC test growth score ([2]; 20% preservative, 24 hour): + | MBC test growth score ([2]; 20% preservative, 48 hour): + | MBC test growth score ([2]; 20% preservative, 72 hour): + | MBC test growth score ([2]; 30% preservative, 8 hour): + | MBC test growth score ([2]; 30% preservative, 24 hour): + | MBC test growth score ([2]; 30% preservative, 48 hour): + | MBC test growth score ([2]; 30% preservative, 72 hour): + | MBC test growth score ([2]; 40% preservative, 8 hour): + | MBC test growth score ([2]; 40% preservative, 24 hour): + | MBC test growth score ([2]; 40% preservative, 48 hour): + | MBC test growth score ([2]; 40% preservative, 72 hour): + | MBC test growth score ([2]; 50% preservative, 8 hour): + | MBC test growth score ([2]; 50% preservative, 24 hour): + | MBC test growth score ([2]; 50% preservative, 48 hour): + | MBC test growth score ([2]; 50% preservative, 72 hour): + | MBC test growth score ([2]; 60% preservative, 8 hour): + | MBC test growth score ([2]; 60% preservative, 24 hour): + | MBC test growth score ([2]; 60% preservative, 48 hour): + | MBC test growth score ([2]; 60% preservative, 72 hour): + | MBC test growth score ([2]; 70% preservative, 8 hour): + | MBC test growth score ([2]; 70% preservative, 24 hour): + | MBC test growth score ([2]; 70% preservative, 48 hour): + | MBC test growth score ([2]; 70% preservative, 72 hour): + | MBC test growth score ([2]; 80% preservative, 8 hour): + | MBC test growth score ([2]; 80% preservative, 24 hour): + | MBC test growth score ([2]; 80% preservative, 48 hour): + | MBC test growth score ([2]; 80% preservative, 72 hour): + | MBC test growth score ([2]; 90% preservative, 8 hour): + | MBC test growth score ([2]; 90% preservative, 24 hour): + | MBC test growth score ([2]; 90% preservative, 48 hour): + | MBC test growth score ([2]; 90% preservative, 72 hour): + | MBC test growth score ([2]; 100% preservative, 8 hour): + | MBC test growth score ([2]; 100% preservative, 24 hour): + | MBC test growth score ([2]; 100% preservative, 48 hour): + | MBC test growth score ([2]; 100% preservative, 72 hour): + | total kill at % preservative (MBC) ([2]; at 72 hours, listed as Na Azide): No kill @ 100%
